According to the Kinase Knowledgebase extract (Sharma et al. 2016):

The compounds below were run against EGFR (human) (UniProt P00533). Conditions: A431.
Chain of EGFR (human) (P00533 whole entry, looked up): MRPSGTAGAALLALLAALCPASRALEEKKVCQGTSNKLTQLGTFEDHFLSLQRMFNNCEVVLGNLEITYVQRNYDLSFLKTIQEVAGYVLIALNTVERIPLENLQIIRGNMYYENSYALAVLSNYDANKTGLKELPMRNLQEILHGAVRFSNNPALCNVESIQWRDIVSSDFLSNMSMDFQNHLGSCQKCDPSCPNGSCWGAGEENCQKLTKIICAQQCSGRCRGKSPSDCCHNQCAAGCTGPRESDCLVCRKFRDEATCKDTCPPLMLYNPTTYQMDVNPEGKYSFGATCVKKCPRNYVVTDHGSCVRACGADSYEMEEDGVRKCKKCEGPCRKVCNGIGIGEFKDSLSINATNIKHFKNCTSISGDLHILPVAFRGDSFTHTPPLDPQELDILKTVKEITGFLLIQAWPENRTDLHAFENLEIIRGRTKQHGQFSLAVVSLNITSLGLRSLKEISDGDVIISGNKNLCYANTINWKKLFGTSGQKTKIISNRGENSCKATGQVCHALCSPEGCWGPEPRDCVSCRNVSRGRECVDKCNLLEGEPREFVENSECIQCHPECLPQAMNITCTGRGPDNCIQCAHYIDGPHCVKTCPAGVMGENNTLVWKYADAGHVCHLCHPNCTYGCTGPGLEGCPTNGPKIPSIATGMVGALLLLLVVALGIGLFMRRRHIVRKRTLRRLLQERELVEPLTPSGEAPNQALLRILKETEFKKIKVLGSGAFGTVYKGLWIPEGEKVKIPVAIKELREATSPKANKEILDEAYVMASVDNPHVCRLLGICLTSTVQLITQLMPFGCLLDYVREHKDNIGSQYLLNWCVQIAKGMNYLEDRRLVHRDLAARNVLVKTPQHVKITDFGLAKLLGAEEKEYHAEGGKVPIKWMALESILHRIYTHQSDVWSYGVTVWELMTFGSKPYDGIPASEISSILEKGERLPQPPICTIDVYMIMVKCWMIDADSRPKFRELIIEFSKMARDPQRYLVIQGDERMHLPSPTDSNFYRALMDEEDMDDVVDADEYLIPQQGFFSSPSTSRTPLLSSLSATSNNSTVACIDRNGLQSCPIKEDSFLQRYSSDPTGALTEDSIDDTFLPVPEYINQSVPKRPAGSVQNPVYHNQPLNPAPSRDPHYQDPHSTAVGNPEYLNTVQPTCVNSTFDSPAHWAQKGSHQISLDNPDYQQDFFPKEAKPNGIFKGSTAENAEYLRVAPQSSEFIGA
Oc1ccc(N=Cc2cccc(O)c2)cc1 showed an IC50 of 33 µM.
For Oc1cccc(C=Nc2cccc(O)c2)c1, the IC50 was over 140 µM.
Oc1ccc(N=Cc2ccccc2O)cc1 gave an IC50 of 92 µM.
Compound O=C(O)c1cc(N(Cc2ccccc2O)Cc2cc(O)ccc2O)ccc1O has an IC50 of 0.4 µM.
For Oc1ccc(CNc2cccc(O)c2)cc1, the IC50 was over 140 µM.
Oc1cccc(CNc2cccc(O)c2)c1 gave an IC50 of over 140 µM.
For Oc1ccc(CNc2ccccc2O)cc1, the IC50 was over 140 µM.
Compound Oc1ccc(NCc2ccccc2O)cc1 has an IC50 of over 140 µM.
In the case of Oc1ccc(NCc2cccc(O)c2)cc1, the IC50 is reported as over 140 µM.
With Oc1cccc(NCc2ccccc2O)c1 the IC50 was over 140 µM.
In the case of Oc1ccccc1C=Nc1ccccc1O, the IC50 is reported as over 140 µM.
For Oc1ccc(C=Nc2cccc(O)c2)cc1, the IC50 was over 140 µM.
Oc1cccc(N=Cc2ccccc2O)c1 showed an IC50 of over 140 µM.
For Oc1ccccc1CNc1ccccc1O, the IC50 was over 140 µM.
In the case of Oc1ccc(CNc2ccc(O)cc2)cc1, the IC50 is reported as 33 µM.
For Oc1cccc(CNc2ccccc2O)c1, the IC50 was over 140 µM.
Compound Oc1cccc(C=Nc2ccccc2O)c1 has an IC50 of 108 µM.
In the case of Oc1ccc(C=Nc2ccccc2O)cc1, the IC50 is reported as over 140 µM.
Compound Oc1ccc(C=Nc2ccc(O)cc2)cc1 has an IC50 of over 140 µM.
